Data taken from patent US7598245B2 (Vertex Pharmaceuticals Incorporated, priority 2003, dated 2009).
pKi: −log10 of the molar value.

Assays:
Type in all cases: biochemical
CDK-2/Cyclin A = molecular target: T1, CDK-2/Cyclin A (Homo sapiens, UniProt P24941); experiment: Inhibition of CDK-2, coupled enzyme assay; conditions: 100 μM ATP, 30° C.
T1 construct: 25 nM CDK-2/Cyclin A
Procedure: Compounds are screened for their ability to inhibit CDK-2/Cyclin A using a standard coupled enzyme assay [Fox et al. Protein Sci. 1998, 7, 2249]. Reactions were carried out in 100 mM HEPES (pH 7.5), 10 mM MgCl2, 25 mM NaCl, 1 mM DTT and 1.5% DMSO. Final substrate concentrations in the assay are 100 μM ATP (Sigma chemicals) and 100 μM peptide (American Peptide, Sunnyvale, Calif.). Assays are carried out at 30° C. and 25 nM CDK-2/Cyclin A. Final concentrations of the components of the coupled enzyme system are 2.5 mM phosphoenolpyruvate, 350 μM NADH, 30 μg/ml pyruvate kinase and 10 μg/ml lactate dehydrogenase.
An assay stock buffer solution is prepared containing all of the reagents listed above, with the exception of CDK-2/Cyclin A, DTT and the test compound of interest. 56 μl of the test reaction is placed in a 384 well plate followed by addition of 1 μl of 2 mM DMSO stock containing the test compound (final compound concentration 30 μM). The plate is preincubated for ˜10 minutes at 30° C. and the reaction initiated by addition of 10 μl of enzyme (final concentration 25 nM). Rates of reaction are obtained using a BioRad Ultramark plate reader (Hercules, Calif.) over a 5 minute read time at 30° C. Ki values are determined according to standard methods.

JAK-3 = molecular target: T2, JAK-3 (Homo sapiens, UniProt P52333); experiment: JAK3 inhibition assay (ELISA, Poly (Glu, Ala, Tyr) coated plates); conditions: 2 μM ATP
T2 sequence (P52333 1-1124): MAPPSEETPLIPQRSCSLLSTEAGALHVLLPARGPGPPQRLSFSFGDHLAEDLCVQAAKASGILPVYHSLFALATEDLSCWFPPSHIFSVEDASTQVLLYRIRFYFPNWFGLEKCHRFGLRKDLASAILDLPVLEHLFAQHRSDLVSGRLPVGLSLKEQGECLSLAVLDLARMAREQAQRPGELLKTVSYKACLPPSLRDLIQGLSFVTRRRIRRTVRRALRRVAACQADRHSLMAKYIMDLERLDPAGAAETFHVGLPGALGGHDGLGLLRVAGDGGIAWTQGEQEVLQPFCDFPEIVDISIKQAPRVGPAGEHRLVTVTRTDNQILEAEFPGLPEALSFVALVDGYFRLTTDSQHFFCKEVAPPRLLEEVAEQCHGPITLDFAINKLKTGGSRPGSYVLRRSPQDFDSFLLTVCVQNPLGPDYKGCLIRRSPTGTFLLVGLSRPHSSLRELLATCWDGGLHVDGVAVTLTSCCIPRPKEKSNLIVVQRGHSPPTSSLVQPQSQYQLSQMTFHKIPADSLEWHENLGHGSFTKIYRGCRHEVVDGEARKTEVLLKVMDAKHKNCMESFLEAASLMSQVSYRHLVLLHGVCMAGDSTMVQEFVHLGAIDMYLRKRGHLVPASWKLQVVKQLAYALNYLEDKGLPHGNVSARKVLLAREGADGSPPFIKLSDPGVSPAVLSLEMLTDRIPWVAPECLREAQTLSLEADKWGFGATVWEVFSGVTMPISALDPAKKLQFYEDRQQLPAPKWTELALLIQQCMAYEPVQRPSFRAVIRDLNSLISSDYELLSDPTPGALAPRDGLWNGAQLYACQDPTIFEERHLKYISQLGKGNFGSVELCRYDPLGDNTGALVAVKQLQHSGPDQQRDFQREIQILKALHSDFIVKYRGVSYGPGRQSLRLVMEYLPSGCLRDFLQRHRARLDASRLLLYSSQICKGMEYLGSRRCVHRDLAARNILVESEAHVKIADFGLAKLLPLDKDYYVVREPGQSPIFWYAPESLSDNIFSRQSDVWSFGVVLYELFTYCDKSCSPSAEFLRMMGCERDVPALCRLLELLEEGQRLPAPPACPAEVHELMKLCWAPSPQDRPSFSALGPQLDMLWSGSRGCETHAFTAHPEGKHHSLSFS
Method in brief: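 ELISA on plates coated with poly(Glu,Ala,Tyr) 6:3:1, with 2 μM ATP, 5 mM MgCl2 and compound. Enzyme-started reaction ran 60 min at 30 °C. Phosphotyrosine detected with HRP-4G10 and TMB at 450 nm; Ki values derived.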

KDR = KDR (Homo sapiens, UniProt P35968); experiment: Inhibition of KDR, coupled enzyme assay; conditions: 300 μM ATP, 37° C.
Chain of KDR (P35968 20-1356): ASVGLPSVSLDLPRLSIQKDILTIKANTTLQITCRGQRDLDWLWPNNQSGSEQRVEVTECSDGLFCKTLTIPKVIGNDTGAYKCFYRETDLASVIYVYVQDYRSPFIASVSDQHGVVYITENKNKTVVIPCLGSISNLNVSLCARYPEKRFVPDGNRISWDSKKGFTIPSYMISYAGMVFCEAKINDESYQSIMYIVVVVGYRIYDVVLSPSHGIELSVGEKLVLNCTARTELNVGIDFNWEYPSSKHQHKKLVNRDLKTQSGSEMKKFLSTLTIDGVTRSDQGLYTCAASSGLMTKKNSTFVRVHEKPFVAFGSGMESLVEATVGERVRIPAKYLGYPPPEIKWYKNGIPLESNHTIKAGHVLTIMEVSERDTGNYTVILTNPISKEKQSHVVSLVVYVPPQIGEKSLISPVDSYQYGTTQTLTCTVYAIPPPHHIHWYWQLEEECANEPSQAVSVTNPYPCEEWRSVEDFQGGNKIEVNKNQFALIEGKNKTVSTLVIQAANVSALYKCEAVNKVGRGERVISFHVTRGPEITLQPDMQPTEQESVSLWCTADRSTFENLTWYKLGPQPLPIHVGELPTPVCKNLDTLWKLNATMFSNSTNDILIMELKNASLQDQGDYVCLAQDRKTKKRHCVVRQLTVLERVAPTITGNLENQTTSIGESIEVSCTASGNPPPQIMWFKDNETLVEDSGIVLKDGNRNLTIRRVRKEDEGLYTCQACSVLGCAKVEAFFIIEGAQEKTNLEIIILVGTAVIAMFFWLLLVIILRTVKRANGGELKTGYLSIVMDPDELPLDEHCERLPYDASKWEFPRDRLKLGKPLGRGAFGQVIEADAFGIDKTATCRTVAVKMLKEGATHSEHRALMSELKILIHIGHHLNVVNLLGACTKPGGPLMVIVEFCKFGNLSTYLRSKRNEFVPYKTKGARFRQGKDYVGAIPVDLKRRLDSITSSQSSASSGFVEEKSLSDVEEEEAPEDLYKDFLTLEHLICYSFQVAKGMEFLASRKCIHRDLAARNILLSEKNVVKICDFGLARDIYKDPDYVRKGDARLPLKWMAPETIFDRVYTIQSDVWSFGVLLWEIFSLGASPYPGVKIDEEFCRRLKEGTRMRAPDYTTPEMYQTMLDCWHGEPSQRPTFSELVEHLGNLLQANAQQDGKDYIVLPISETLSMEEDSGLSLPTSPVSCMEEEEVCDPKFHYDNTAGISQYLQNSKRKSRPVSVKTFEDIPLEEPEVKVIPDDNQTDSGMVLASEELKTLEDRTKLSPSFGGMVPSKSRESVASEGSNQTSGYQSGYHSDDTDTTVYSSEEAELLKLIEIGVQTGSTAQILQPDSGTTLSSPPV
Procedure: Compounds were screened for their ability to inhibit KDR using a standard coupled enzyme assay (Fox et al., Protein Sci., (1998) 7, 2249). Assays were carried out in a mixture of 200 mM HEPES 7.5, 10 mM MgCl2, 25 mM NaCl, 1 mM DTT and 1.5% DMSO. Final substrate concentrations in the assay were 300 μM ATP (Sigma Chemicals) and 10 μM poly E4Y (Sigma). Assays were carried out at 37° C. and 30 nM KDR. Final concentrations of the components of the coupled enzyme system were 2.5 mM phosphoenolpyruvate, 200 μM NADH, 30 μg/ML pyruvate kinase and 10 μg/ml lactate dehydrogenase.
An assay stock buffer solution was prepared containing all of the reagents listed above, with the exception of ATP and the test compound of interest. 177 μl of the stock solution was placed in a 96 well plate followed by addition of 3 μl of 2 mM DMSO stock containing the test compound (final compound concentration 30 μM). The plate was preincubated for about 10 minutes at 37° C. and the reaction initiated by addition of 20 μl of ATP (final concentration 300 μM). Rates of reaction were obtained using a Molecular Devices plate reader (Sunnyvale, Calif.) over a 5 minute read time at 37° C.

Row | SMILES | pKi (CDK-2/Cyclin A) | pKi (JAK-3) | pKi (KDR)
1 | CC(=O)N1[C@H](C)CN(c2cc(-n3cnc(Nc4ccc(NC(=O)OC(C)C)cc4)n3)ccn2)C[C@@H]1C [Compound I-89] | 6.00 to 6.30 | 6.00 to 8.00 | 6.00 to 7.00
2 | CC(=O)N1[C@H](C)CN(c2cc(-n3cnc(Nc4ccc(N5CCN(S(=O)(=O)c6ccc(C)cc6)CC5)cc4)n3)ccn2)C[C@@H]1C [Compound I-92] | 6.00 to 6.30 | > 8.00 | > 7.00
3 | O=C(Nc1cc(-n2cnc(Nc3ccccc3)n2)ccn1)C1CCCCC1 [Compound I-93] | 6.00 to 6.30 | < 6.00 | 6.00 to 7.00
4 | O=C(CC1CCCC1)Nc1cc(-n2cnc(Nc3ccccc3)n2)ccn1 [Compound I-94, 2-Cyclopentyl-N-[4-(3-phenylamino-[1,2,4]triazol-1-yl)-pyridin-2-yl]-acetamide] | < 6.00 | 6.00 to 8.00 | 6.00 to 7.00
5 | CC(=O)N1[C@H](C)CN(c2cc(-n3cnc(Nc4ccc(N5CCN(C(=O)OC(C)(C)C)CC5)cc4)n3)ccn2)C[C@@H]1C [Compound I-97, 4-(4-{1-[2-(4-Acetyl-3,5-dimethyl-piperazin-1-yl)-pyridin-4-yl]-1H-[1,2,4]triazol-3-ylamino}-phenyl)-piperazine-1-carboxylic acid tert-butyl ester] | > 6.30 | 6.00 to 8.00 | > 7.00
6 | CCCNC(=O)Nc1ccc(Nc2ncn(-c3ccnc(N4C[C@@H](C)N(C(C)=O)[C@@H](C)C4)c3)n2)cc1 [Compound I-99] | > 6.30 | 6.00 to 8.00 | > 7.00
7 | CC(=O)N1[C@H](C)CN(c2cc(-n3cnc(Nc4ccc(NC(=O)NC(C)C)cc4)n3)ccn2)C[C@@H]1C [Compound I-100] | > 6.30 | > 8.00 | > 7.00
8 | c1ccc(-n2cnc(Nc3ccc(N4CCOCC4)cc3)n2)cc1 [Compound I-106] | < 6.00 | 6.00 to 8.00 | 6.00 to 7.00
9 | c1ccc(-n2cnc(Nc3ccnc(NCCN4CCOCC4)c3)n2)cc1 [Compound I-107] | < 6.00 | < 6.00 | < 6.00

The remaining lines, values ahead:

Row | pKi (CDK-2/Cyclin A) | pKi (JAK-3) | pKi (KDR) | SMILES
10 | 6.00 to 6.30 | 6.00 to 8.00 | 6.00 to 7.00 | CC(=O)N1[C@H](C)CN(c2cc(-n3cnc(Nc4ccc(NC(=O)OCC(C)C)cc4)n3)ccn2)C[C@@H]1C [Compound I-90]
11 | 6.00 to 6.30 | 6.00 to 8.00 | 6.00 to 7.00 | CC(=O)N1[C@H](C)CN(c2cc(-n3cnc(Nc4ccc(NC(=O)OCC(C)(C)C)cc4)n3)ccn2)C[C@@H]1C [Compound I-91]
12 | 6.00 to 6.30 | < 6.00 | 6.00 to 7.00 | O=C(CCc1ccccc1)Nc1cc(-n2cnc(Nc3ccccc3)n2)ccn1 [Compound I-95]
13 | > 6.30 | < 6.00 | 6.00 to 7.00 | O=C(Cc1ccccc1)Nc1cc(-n2cnc(Nc3ccccc3)n2)ccn1 [Compound I-96]
14 | > 6.30 | > 8.00 | > 7.00 | CCNC(=O)Nc1ccc(Nc2ncn(-c3ccnc(N4C[C@@H](C)N(C(C)=O)[C@@H](C)C4)c3)n2)cc1 [Compound I-98, 1-(4-{1-[2-(4-Acetyl-3,5-dimethyl-piperazin-1-yl)-pyridin-4-yl]-1H-[1,2,4]triazol-3-ylamino}-phenyl)-3-ethyl-urea]
15 | 6.00 to 6.30 | 6.00 to 8.00 | 6.00 to 7.00 | CC(=O)N1[C@H](C)CN(c2cc(-n3cnc(Nc4ccc(NC(=O)NC(C)(C)C)cc4)n3)ccn2)C[C@@H]1C [Compound I-101]
16 | < 6.00 | < 6.00 | 6.00 to 7.00 | CC(C)(C)CC(=O)Nc1cc(-n2cnc(Nc3ccccc3)n2)ccn1 [Compound I-102]
17 | 6.00 to 6.30 | 6.00 to 8.00 | 6.00 to 7.00 | c1ccc(-n2cnc(Nc3ccnc(N4CCOCC4)c3)n2)cc1 [Compound I-105]
18 | < 6.00 | < 6.00 | 6.00 to 7.00 | c1ccc(-n2cnc(Nc3ccc(N4CCOCC4)nc3)n2)cc1 [Compound I-134]
